pIC50: −log10 of the molar value.
What was measured:
Dihydrofolate reductase [1] = biological target: T1, Dihydrofolate reductase (Pneumocystis carinii, UniProt P16184)
T1 sequence (P16184 whole entry): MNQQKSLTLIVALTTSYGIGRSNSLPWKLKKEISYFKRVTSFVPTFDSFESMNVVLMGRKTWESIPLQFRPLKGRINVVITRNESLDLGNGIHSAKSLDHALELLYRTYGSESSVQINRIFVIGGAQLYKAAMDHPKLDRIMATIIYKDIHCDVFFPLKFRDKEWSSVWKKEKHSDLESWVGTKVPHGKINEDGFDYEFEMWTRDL
Description: Inhibitory activity against dihydrofolate reductase (DHFR) from Pneumocystis carinii

SF-295 [2] = experiment: inhibition of the growth of CNS cancer(SF-295) cell line; type: functional; details: Homo sapiens
IGROV-1 [3] = experiment: Inhibition of the growth of ovarian cancer(IGROVI) cell line at 0.01 uM; type: functional; details: Homo sapiens
HCT-116 [4] = experiment: Inhibition of the growth of colon cancer(HCT116) cell line at 0.01 uM; type: functional; details: Homo sapiens
CAKI-1 [5] = experiment: Inhibition of the growth of renal cancer(CAKI-1) cell line at 0.01 uM; type: functional; details: Homo sapiens
IGROV-1 [6] = experiment: Inhibition of the growth of ovarian cancer(IGROVI) cell line; type: functional; details: Homo sapiens
[7] = biological target: T2, Bifunctional dihydrofolate reductase-thymidylate synthase (Toxoplasma gondii, UniProt Q07422)
T2 sequence (Q07422 whole entry): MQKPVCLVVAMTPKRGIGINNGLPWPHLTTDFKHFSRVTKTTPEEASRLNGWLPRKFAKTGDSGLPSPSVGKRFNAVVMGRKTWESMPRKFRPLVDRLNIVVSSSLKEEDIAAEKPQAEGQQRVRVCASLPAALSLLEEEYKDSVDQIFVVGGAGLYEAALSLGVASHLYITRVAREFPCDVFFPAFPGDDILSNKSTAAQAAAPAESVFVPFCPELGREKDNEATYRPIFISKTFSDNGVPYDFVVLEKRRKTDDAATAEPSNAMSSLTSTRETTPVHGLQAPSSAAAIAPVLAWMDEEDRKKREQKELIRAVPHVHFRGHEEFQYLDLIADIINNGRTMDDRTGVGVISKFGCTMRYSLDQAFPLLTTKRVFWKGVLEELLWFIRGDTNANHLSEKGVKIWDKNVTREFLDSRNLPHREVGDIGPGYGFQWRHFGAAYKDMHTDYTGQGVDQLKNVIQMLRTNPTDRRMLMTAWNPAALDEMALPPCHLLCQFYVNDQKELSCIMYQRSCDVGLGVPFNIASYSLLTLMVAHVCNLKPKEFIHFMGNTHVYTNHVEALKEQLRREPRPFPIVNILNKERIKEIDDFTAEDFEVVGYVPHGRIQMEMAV
Description: Inhibitory activity against dihydrofolate reductase (DHFR) from Toxoplasma gondii

MDA-N [8] = experiment: Inhibition of the growth of breast cancer(MDA-N) cell line at 0.01 uM; type: functional; details: Homo sapiens
NCI-H460 [9] = experiment: inhibition of the growth of non-small-cell lung cancer (NCI-H460) cell line at 0.01 uM; type: functional; details: Homo sapiens
M14 [10] = experiment: Inhibition of the growth of melanoma cancer (M14) cell line at 0.01 uM; type: functional; details: Homo sapiens
M14 [11] = experiment: Inhibition of the growth of melanoma cancer (M14) cell line; type: functional; details: Homo sapiens
MDA-MB-435 [12] = experiment: Inhibition of the growth of breast cancer (MDA-MB-435) cell line at 0.01 uM; type: functional; details: Homo sapiens
MDA-N [13] = experiment: Inhibition of the growth of breast cancer(MDA-N) cell line; type: functional; details: Homo sapiens
SK-MEL-5 [14] = experiment: Inhibition of the growth of melanoma cancer (SK-MEL-5) cell line; type: functional; details: Homo sapiens
786-0 = experiment: Inhibition of the growth of renal cancer(786-0) cell line. value in parentheses is percent inhibition at 0.01 uM; type: functional; details: Homo sapiens
OVCAR-8 [15] = experiment: Inhibition of the growth of ovarian cancer(OVCAR-8) cell line at 0.01 uM; type: functional; details: Homo sapiens
RPMI-8226 [16] = experiment: Inhibition of the growth of leukemia (RPMI-8226) cell line at 0.01 uM; type: functional; details: Homo sapiens
NCI-H23 [17] = experiment: Inhibition of the growth of non-small-cell lung cancer (NCI-H23) cell line at 0.01 uM; type: functional; details: Homo sapiens
SR [18] = experiment: Inhibition of the growth of leukemia(SR) cell line. value in parentheses is percent inhibition at 0.01 uM; type: functional; details: Homo sapiens
UO-31 [19] = experiment: Inhibition of the growth of renal cancer(UO-31) cell line; type: functional; details: Homo sapiens
OVCAR-8 [20] = experiment: Inhibition of the growth of ovarian cancer(OVCAR-8) cell line; type: functional; details: Homo sapiens
NCI-H522 [21] = experiment: Inhibition of the growth of non-small-cell lung cancer (NCI-H522) cell line at 0.01 uM; type: functional; details: Homo sapiens
DU-145 [22] = experiment: Inhibition of the growth of prostate cancer(DU-145) cell line at 0.01 uM; type: functional; details: Homo sapiens
A549 [23] = experiment: Inhibition of the growth of non-small-cell lung cancer (A549/ATCC) cell line at 0.01 uM; type: functional; details: Homo sapiens
MDA-MB-435 [24] = experiment: Inhibition of the growth of breast cancer (MDA-MB-435) cell line; type: functional; details: Homo sapiens
MCF7 = experiment: Inhibition of the growth of breast cancer (MCF-7) cell line; type: functional; details: Homo sapiens
SF-295 [25] = experiment: Inhibition of the growth of CNS cancer(SF-295) cell line at 0.01 uM; type: functional; details: Homo sapiens
HCT-15 [26] = experiment: inhibition of the growth of colon cancer(HCT-15) cell line; type: functional; details: Homo sapiens
CAKI-1 [27] = experiment: Inhibition of the growth of renal cancer(CAKI-1) cell line; type: functional; details: Homo sapiens
NCI/ADR-RES [28] = experiment: Inhibition of the growth of breast cancer (MCF7/ADR-RES) cell line; type: functional; details: Homo sapiens
Dihydrofolate reductase [29] = biological target: T3, Dihydrofolate reductase (Rattus norvegicus, UniProt Q920D2)
T3 sequence (Q920D2 whole entry): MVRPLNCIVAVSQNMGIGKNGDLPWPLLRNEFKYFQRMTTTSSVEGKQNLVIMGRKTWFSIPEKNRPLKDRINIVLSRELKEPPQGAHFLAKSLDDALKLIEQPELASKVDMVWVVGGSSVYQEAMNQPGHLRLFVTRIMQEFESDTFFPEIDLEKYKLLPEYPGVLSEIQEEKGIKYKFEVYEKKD
Description: Inhibitory activity against dihydrofolate reductase (DHFR) from rat liver

SNB-19 [30] = experiment: Inhibition of the growth of CNS cancer(SNB-19) cell line at 0.01 uM; type: functional; details: Homo sapiens
SR [31] = experiment: Inhibition of the growth of leukemia(SR) cell line. value in parentheses is percent inhibition at 0.01 uM at 0.01 uM; type: functional; details: Homo sapiens
NCI-H522 [32] = experiment: inhibition of the growth of non-small-cell lung cancer (NCI-H522) cell line; type: functional; details: Homo sapiens
SF-268 [33] = experiment: Inhibition of the growth of CNS cancer(SF-268) cell line at 0.01 uM; type: functional; details: Homo sapiens
UO-31 [34] = experiment: Inhibition of the growth of renal cancer(UO-31) cell line at 0.01 uM; type: functional; details: Homo sapiens
A549 [35] = experiment: Inhibition of the growth of non-small-cell lung cancer (A549/ATCC) cell line; type: functional; details: Homo sapiens
NCI-H322M = experiment: Inhibition of the growth of non-small-cell lung cancer (NCI-H322M) cell line; details: Homo sapiens
MOLT-4 = experiment: Inhibition of the growth of leukemia (MOLT-4) cell line.; type: functional; details: Homo sapiens
SF-268 [36] = experiment: inhibition of the growth of CNS cancer(SF-268) cell line; type: functional; details: Homo sapiens
NCI-H23 [37] = experiment: Inhibition of the growth of non-small-cell lung cancer (NCI-H23) cell line; type: functional; details: Homo sapiens
DU-145 [38] = experiment: Inhibition of the growth of prostate cancer(DU-145) cell line; type: functional; details: Homo sapiens
RPMI-8226 [39] = experiment: Inhibition of the growth of leukemia (RPMI-8226) cell line; type: functional; details: Homo sapiens
NCI-H460 [40] = experiment: Inhibition of the growth of non-small-cell lung cancer (NCI-H460) cell line; type: functional; details: Homo sapiens
NCI/ADR-RES [41] = experiment: Inhibition of the growth of breast cancer (MCF7/ADR-RES) cell line at 0.01 uM; type: functional; details: Homo sapiens
SNB-19 [42] = experiment: inhibition of the growth of CNS cancer(SNB-19) cell line; type: functional; details: Homo sapiens
SF-539 = experiment: inhibition of the growth of CNS cancer(SF-539) cell line. value in parentheses is percent inhibition at 0.01 uM; type: functional; details: Homo sapiens
SK-MEL-5 [43] = experiment: Inhibition of the growth of melanoma cancer (SK-MEL-5) cell line at 0.01 uM; type: functional; details: Homo sapiens
KM12 = experiment: inhibition of the growth of colon cancer(KM-12) cell line at 0.01 uM; type: functional; details: Homo sapiens
HCT-15 [44] = experiment: Inhibition of the growth of colon cancer(HCT-15) cell line. value in parentheses is percent inhibition at 0.01 uM; type: functional; details: Homo sapiens
HCT-116 [45] = experiment: inhibition of the growth of colon cancer(HCT116) cell line; type: functional; details: Homo sapiens

pIC50 (Dihydrofolate reductase [1]): 6.66
GI50 (SK-MEL-5 [14]): < 0.01 µM
GI50 (786-0): 0.59 µM
GI50 (OVCAR-8 [20]): < 0.01 µM
GI50 (MDA-MB-435 [24]): < 0.01 µM
GI50 (MCF7): 0.06 µM
GI50 (HCT-15 [26]): < 0.01 µM
pIC50 (Dihydrofolate reductase [29]): 8.17
GI50 (NCI-H522 [32]): < 0.01 µM
GI50 (A549 [35]): < 0.01 µM
GI50 (NCI-H322M): 0.02 µM
GI50 (MOLT-4): 0.02 µM
GI50 (NCI-H23 [37]): < 0.01 µM
GI50 (DU-145 [38]): < 0.01 µM
GI50 (RPMI-8226 [39]): < 0.01 µM
GI50 (NCI-H460 [40]): < 0.01 µM
GI50 (HCT-116 [45]): < 0.01 µM
SMILES: COc1ccc(N(C)c2ccc3nc(N)nc(N)c3n2)cc1
GI50 (SF-295 [2]): < 0.01 µM
inhibition at 0.01 µM (IGROV-1 [3]): 62%
inhibition at 0.01 µM (HCT-116 [4]): 83%
inhibition at 0.01 µM (CAKI-1 [5]): 59%
GI50 (IGROV-1 [6]): < 0.01 µM
pIC50 [7]: 8.07
inhibition at 0.01 µM (MDA-N [8]): 66%
inhibition at 0.01 µM (NCI-H460 [9]): 84%
inhibition at 0.01 µM (M14 [10]): 55%
GI50 (M14 [11]): < 0.01 µM
inhibition at 0.01 µM (MDA-MB-435 [12]): 68%
GI50 (MDA-N [13]): < 0.01 µM
inhibition at 0.01 µM (OVCAR-8 [15]): 90%
inhibition at 0.01 µM (RPMI-8226 [16]): 59%
inhibition at 0.01 µM (NCI-H23 [17]): 54%
GI50 (SR [18]): < 0.01 µM
GI50 (UO-31 [19]): < 0.01 µM
inhibition at 0.01 µM (NCI-H522 [21]): 53%
inhibition at 0.01 µM (DU-145 [22]): 51%
inhibition at 0.01 µM (A549 [23]): 67%
inhibition at 0.01 µM (SF-295 [25]): 62%
GI50 (CAKI-1 [27]): < 0.01 µM
GI50 (NCI/ADR-RES [28]): < 0.01 µM
inhibition at 0.01 µM (SNB-19 [30]): 51%
inhibition at 0.01 µM (SR [31]): 53%
inhibition at 0.01 µM (SF-268 [33]): 68%
inhibition at 0.01 µM (UO-31 [34]): 74%
GI50 (SF-268 [36]): < 0.01 µM
inhibition at 0.01 µM (NCI/ADR-RES [41]): 100%
GI50 (SNB-19 [42]): < 0.01 µM
GI50 (SF-539): 0.03 µM
inhibition at 0.01 µM (SK-MEL-5 [43]): 65%
GI50 (KM12): 0.02 µM
inhibition at 0.01 µM (HCT-15 [44]): 67%

From ChEMBL document CHEMBL1131172 (J Med Chem, 1998)
